Source: US8318670B2, “Antigens targeted by pathogenic AI4 T cells in type 1 diabetes and uses thereof” (Albert Einstein College of Medicine of Yeshiva University, priority 2004, dated 2012)
Where no end group is shown, it is not given here.

Tested on: AI4 CTL
Test: 51Cr-release cytotoxicity assay, AI4 CTL against peptide-pulsed RMA-S target cells
Assay type: cell-based, mouse
Conditions: RMA-S target cells, E:T ratio of 40, lower peptide concentrations (FIG. 6B); read-out: half-maximal activity, AI4 cytotoxic response
Experimental: Cytotoxicity assays for screening of HPLC fractions and peptide libraries. AI4 CTL were generated by culturing splenocytes from NOD.AI4αβTg mice with IFN-γ-treated NIT-1 cells and 12.5 U/ml IL-2 as described (DiLorenzo et al., 2002). NY8.3 CTL were generated by culturing splenocytes from 8.3-NOD mice with mitomycin C-treated NOD splenocytes pulsed with 10 nM NRP-A7 peptide as described (DiLorenzo et al., 2002). CTL were used in 16 h ^51Cr-release cytotoxicity assays to test for recognition of peptide-pulsed target cells at an E:T ratio of 40:1 as described (DiLorenzo et al., 2002). TAP-deficient cell lines RMA-S, RMA-S/K^d, T2, and T2-K^d were used as targets. Synthetic peptides or peptide library mixes were used at concentrations indicated in the figures, and 1.6×10^9 NIT-1 cell equivalents of peptide were used for HPLC fraction screening assays.
Cytotoxicity Assay. AI4 CTL were generated by culturing splenocytes from NOD.AI4αβ Tg mice with IFN-γ-treated NIT-1β cells (Hamaguchi et al., 1991) and IL-2 as described (DiLorenzo et al., 2002). CTL were used in 16 h ^51Cr-release cytotoxicity assays to test for recognition of peptide-pulsed target cells at an effector to target ratio of 40:1 as described (DiLorenzo et al., 2002). TAP-deficient RMA-S cells (Kerre et al., 1986) were used as targets.

Sequence	EC50 [nM]
YAIENYLEL [MimA2, YAIENYLEL]	0.01

Same assay, conditions: RMA-S targets, peptide 0.1 nM to 1 μM (FIG. 11A)

Sequence	AI4 CTL response to natural peptides with AI4-preferred motif
FQDENYLYL (listed as Mus musculus) [FNL9, natural peptide of DMK and MRCKβ]	mirroring that obtained with the Mim peptide
VMLENYTHL (listed as Mus musculus) [VML9, natural peptide, similar to KRAB zinc finger protein]	more weakly
TNKENYTEL [TL9, natural peptide of stromal cell derived factor receptor 1]	nonreacting
VTLENYTHL [VTL9, natural peptide of hypothetical protein]	nonreacting
DMHENYMEM [DM9, natural peptide of X-linked lymphocyte regulated complex]	nonreacting
RTSENYLEL [RLL9, natural peptide of MKIAA1569 protein]	nonreacting
HEAESYML [HL9, natural peptide of calcitonin receptor precursor]	nonreacting
FTDESYLEL [FSL9, natural peptide of polymyositis/scleroderma autoantigen 2]	nonreacting
EVVESYMYL [EL9, natural peptide, similar to 1,2-α-mannosidase IC]	nonreacting
RLFENYIEL (listed as Mus musculus) [RIL9, natural peptide of exocyst complex component Sec5]	more weakly
QYLENYLWM (listed as Mus musculus) [QM9, natural peptide of aquarius]	more weakly

Same assay, conditions: mimotope and alanine-substituted peptides, varying concentrations, E:T ratio of 40

Sequence	AI4 cytotoxic response towards peptide-pulsed RMA-S target cells
YFIANYLEL [A4]	significantly lower responses
YFIENYLAL [A8]	decreased
YAIENYLEL [MimA2, YAIENYLEL]	strongest AI4 CTL response of all of the peptides
YFIENALEL [A6]	significantly lower responses
YFIENYAEL [A7]	decreased
YFIENYLEL [Mim, YFIENYLEL]	best response

Tested on: T cells cultured from NOD islets
Test: IFN-γ ELISPOT of T cells cultured from NOD islets with peptide-pulsed APC
Assay type: cell-based, mouse
Conditions: 1 μM peptide, T cells from pooled islets of 11-week-old NOD mice, 40 h
Experimental: ELISPOT assay. ELISPOT plates (MAHA S45 10; Millipore, Billerica, Mass.) were precoated with anti-murine IFN-γ Ab (R4-6A2; BD Biosciences Pharmingen, San Diego, Calif.) and blocked with 1% BSA (Fraction V, Sigma-Aldrich, St. Louis, Mo.) in PBS. APC (Mitomycin C-treated NOD splenocytes) were added at 2×10^4 cells/well and pulsed for 1 h with 1 μM of each peptide (MimA2, NRP-V7, INS-19, INS BC, GAD65206, GAD65546). Cultured islet T cells were added at 2×10^4 cells/well and plates were incubated at 37° C. for 40 h. IFN-γ secretion was detected with a second, biotinylated anti-murine IFN-γ Ab (XMG1.2; BD Biosciences Pharmingen, San Diego, Calif.). Spots were developed using streptavidin-alkaline phosphatase (Zymed Laboratories, Inc., South San Francisco, Calif.) and 5-bromo-4-chloro-3-indolyl-phosphate/nitroblue tetrazolium chloride substrate (Sigma-Aldrich, St. Louis, Mo.).
IFN-γ ELISPOT. ELISPOT plates (MAHA S45 10; Millipore) were coated with anti-murine IFN-γ Ab (R4-6A2; BD Biosciences Pharmingen) and blocked with 1% BSA (Sigma-Aldrich) in PBS. APC (Mitomycin C-treated NOD splenocytes) were added at 2×10^4 cells/well and pulsed with 1 μM peptide. Cultured islet T cells were added at 2×10^4 cells/well and plates were incubated at 37° C. for 40 h. Secreted IFN-γ was detected with a second, biotinylated anti-murine IFN-γ Ab (XMG1.2; BD Biosciences Pharmingen). Spots were developed using streptavidin-alkaline phosphatase (Zymed Laboratories) and 5-bromo-4-chloro-3-indolyl-phosphate/nitroblue tetrazolium chloride substrate (Sigma-Aldrich). For all incubation steps, plate bottoms were covered with aluminum foil to distribute heat uniformly across the plate as described (Kalyuzhny and Stark, 2001).

Sequence	IFN-γ spots in response to peptide
LYLVCGERL (listed as Mus musculus) [INS-L9, G9L variant of murine insulin B15-23]	detectable
FQDENYLYL (listed as Mus musculus) [FNL9, natural peptide of DMK and MRCKβ]	recognized by a detectable population of T cells
FYTPMSRREV (listed as Mus musculus) [INS BC, murine insulin 2 B25-C34]	No spots were detected
SYQPLGDKV (listed as Mus musculus) [GAD65546, murine GAD65 546-554 peptide]	unable to detect responses
TYEIAPVFV (listed as Mus musculus) [GAD65206, murine glutamic acid decarboxylase 65 206-214]	unable to detect responses
KYNKANVFL (peptide NRP-V7) [mimotope peptide recognized by 8.3-like T cells]	detectable

Target: T1, H-2K^d (Mus musculus, UniProt P01902)
T1 sequence (P01902 22-368): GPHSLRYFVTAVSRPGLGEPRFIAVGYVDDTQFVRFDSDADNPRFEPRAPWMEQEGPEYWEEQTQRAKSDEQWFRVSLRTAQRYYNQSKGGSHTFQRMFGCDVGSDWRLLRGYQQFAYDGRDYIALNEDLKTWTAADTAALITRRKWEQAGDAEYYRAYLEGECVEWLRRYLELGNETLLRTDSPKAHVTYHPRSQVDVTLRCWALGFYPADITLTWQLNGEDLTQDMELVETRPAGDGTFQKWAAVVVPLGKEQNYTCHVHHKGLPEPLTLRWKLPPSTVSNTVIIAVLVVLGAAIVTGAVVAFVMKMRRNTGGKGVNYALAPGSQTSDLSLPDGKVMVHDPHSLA
T1 sequence (P01887 21-119 partner): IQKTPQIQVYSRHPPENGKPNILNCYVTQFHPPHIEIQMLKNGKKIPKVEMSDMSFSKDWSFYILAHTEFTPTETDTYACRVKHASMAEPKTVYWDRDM
Test: not given
Conditions: cited from earlier work

Sequence	binding to H-2K^d relative to insulin B15-23
LYLVCGERL (listed as Mus musculus) [INS-L9, G9L variant of murine insulin B15-23]	more stable binding
LYLVCGERI (listed as Mouse sp.) [INS-I9, G9I variant of murine insulin B15-23]	more stable binding
